# Measurements taken from patent US9265253B2, “Use of macrocyclic picolinamides as fungicides” (DOW AGROSCIENCES LLC, priority 2013, dated 2016).
# Tested on: Alternaria solani
# Assay: Tomato Early Blight (ALTESO) disease control
# Type: in vivo
# Details: Alternaria solani, topical, 24 h, 1 Day Protectant, read-out: Disease Control ALTESO 1 DP
# Protocol: Technical grades of materials were dissolved in acetone, which were then mixed with nine volumes of water containing 110 ppm Triton X-100. The fungicide solutions were applied onto wheat seedlings using an automated booth sprayer to run-off. All sprayed plants were allowed to air dry prior to further handling. All fungicides were evaluated using the aforementioned method for their activity vs. all target diseases. Wheat leaf blotch and brown rust activity were also evaluated using track spray applications, in which case the fungicides were formulated as EC formulations, containing 0.1% Trycol 5941 in the spray solutions. Wheat plants (variety Yuma) were grown from seed in a greenhouse in 50% mineral soil/50% soil-less Metro mix until the first leaf was fully emerged, with 7-10 seedlings per pot. These plants were inoculated with an aqueous spore suspension of Septoria tritici either prior to or after fungicide treatments. After inoculation the plants were kept in 100% relative humidity (one day in a dark dew chamber followed by two to three days in a lighted dew chamber at 20° C.) to permit spores to germinate and infect the leaf. The plants were then transferred to a greenhouse set at 20° C. for disease to develop. When disease symptoms were fully expressed on the 1st leaves of untreated plants, infection levels were assessed on a scale of 0 to 100 percent disease severity. Percent disease control was calculated using the ratio of disease severity on treated plants relative to untreated plants. Tomato plants (variety Outdoor girl) were propagated in soil-less Metro mix, with each pot having one plant, and used when 12 to 14 days old. Test plants were inoculated with an aqueous spore suspension of Alternaria solani 24 hr after fungicide treatments. After inoculation the plants were kept in 100% relative humidity (one day in a dark dew chamber followed by two to three days in a lighted dew chamber at 20° C.) to permit spores to germinate and infect the leaf. The plants were then transferred to a growth room at 22° C. for disease to develop. Fungicide formulation, application and disease assessment on the sprayed leaves followed the procedures as described in the Example A.
row,Structure (SMILES),pest or weed control at 100 ppm [%]
1,CCCO[C@@H]1[C@@H](CCC(C)C)CCC[C@H](NC(=O)c2nccc(OC)c2OC(C)=O)C(=O)O[C@H]1C [Compound F64],80 to 100
2,CCOCC(=O)OCOc1c(OC)ccnc1C(=O)N[C@H]1CCC[C@H](Cc2ccc(F)cc2)[C@@H](OCC2CC2)[C@H](C)OC1=O [Compound F164],80 to 100
3,CCOCC(=O)OCOc1c(OC)ccnc1C(=O)N[C@H]1CCC[C@H](Cc2ccc(F)cc2F)[C@@H](OC(=O)c2ccco2)[C@H](C)OC1=O [Compound F193],80 to 100
4,COc1ccnc(C(=O)N[C@H]2CCC[C@H](Cc3ccc(F)cc3F)[C@@H](OC(=O)c3ccco3)[C@H](C)OC2=O)c1OCOC(C)=O [Compound F144],80 to 100

# Tested on: Venturia inaequalis
# Assay: Apple Scab (VENTIN) disease control
# Type: in vivo
# Details: Venturia inaequalis, topical, 24 h, 1 Day Protectant, read-out: Disease Control VENTIN 1 DP
# Protocol: Technical grades of materials were dissolved in acetone, which were then mixed with nine volumes of water containing 110 ppm Triton X-100. The fungicide solutions were applied onto wheat seedlings using an automated booth sprayer to run-off. All sprayed plants were allowed to air dry prior to further handling. All fungicides were evaluated using the aforementioned method for their activity vs. all target diseases. Wheat leaf blotch and brown rust activity were also evaluated using track spray applications, in which case the fungicides were formulated as EC formulations, containing 0.1% Trycol 5941 in the spray solutions. Wheat plants (variety Yuma) were grown from seed in a greenhouse in 50% mineral soil/50% soil-less Metro mix until the first leaf was fully emerged, with 7-10 seedlings per pot. These plants were inoculated with an aqueous spore suspension of Septoria tritici either prior to or after fungicide treatments. After inoculation the plants were kept in 100% relative humidity (one day in a dark dew chamber followed by two to three days in a lighted dew chamber at 20° C.) to permit spores to germinate and infect the leaf. The plants were then transferred to a greenhouse set at 20° C. for disease to develop. When disease symptoms were fully expressed on the 1st leaves of untreated plants, infection levels were assessed on a scale of 0 to 100 percent disease severity. Percent disease control was calculated using the ratio of disease severity on treated plants relative to untreated plants. Apple seedlings (variety McIntosh) were grown in soil-less Metro mix, with one plant per pot. Seedlings with two expanding young leaves at the top (older leaves at bottom of the plants were trimmed) were used in the test. Plants were inoculated with a spore suspension of Venturia inaequalis 24 hr after fungicide treatment and kept in a 22° C. dew chamber with 100% RH for 48 hr, and then moved to a greenhouse set at 20° C. for disease to develop. Fungicide formulation, application and disease assessment on the sprayed leaves followed the procedures as described in the Example A.
row,Structure (SMILES),pest or weed control at 100 ppm [%]
1,CCCO[C@@H]1[C@@H](CCC(C)C)CCC[C@H](NC(=O)c2nccc(OC)c2OC(C)=O)C(=O)O[C@H]1C [Compound F64],0 to 80
2,CCOCC(=O)OCOc1c(OC)ccnc1C(=O)N[C@H]1CCC[C@H](Cc2ccc(F)cc2)[C@@H](OCC2CC2)[C@H](C)OC1=O [Compound F164],80 to 100
3,CCOCC(=O)OCOc1c(OC)ccnc1C(=O)N[C@H]1CCC[C@H](Cc2ccc(F)cc2F)[C@@H](OC(=O)c2ccco2)[C@H](C)OC1=O [Compound F193],80 to 100
4,COc1ccnc(C(=O)N[C@H]2CCC[C@H](Cc3ccc(F)cc3F)[C@@H](OC(=O)c3ccco3)[C@H](C)OC2=O)c1OCOC(C)=O [Compound F144],80 to 100

# Tested on: Puccinia triticina; Synonym: Puccinia recondite f. Sp. Tritici
# Assay: Wheat Brown Rust (PUCCRT) disease control
# Type: in vivo
# Details: Puccinia triticina, topical, 24 h, 1 Day Protectant, rate 100 ppm; read-out: PUCCRT 1 DP disease control
# Summary of the method: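 Brown rust on first-leaf Yuma wheat: spore inoculation before or after spray application (acetone/Triton X-100 solution, or EC with Trycol in track spray), overnight 100% RH at 22 °C, disease developed at 24 °C. Severity scored 0–100% and converted to percent control against untreated.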
row,Structure (SMILES),pest or weed control at 100 ppm [%]
1,CCCO[C@@H]1[C@@H](CCC(C)C)CCC[C@H](NC(=O)c2nccc(OC)c2OC(C)=O)C(=O)O[C@H]1C [Compound F64],80 to 100
2,CCOCC(=O)OCOc1c(OC)ccnc1C(=O)N[C@H]1CCC[C@H](Cc2ccc(F)cc2)[C@@H](OCC2CC2)[C@H](C)OC1=O [Compound F164],80 to 100

# Same assay, conditions: Puccinia triticina, topical, 24 h, 1 Day Protectant, rate 121.5 g/H; read-out: PUCCRT 1 DP disease control
row,Structure (SMILES),pest or weed control at 121.5 g/ha [%]
1,CCCO[C@@H]1[C@@H](CCC(C)C)CCC[C@H](NC(=O)c2nccc(OC)c2OC(C)=O)C(=O)O[C@H]1C [Compound F64],80 to 100
2,CCOCC(=O)OCOc1c(OC)ccnc1C(=O)N[C@H]1CCC[C@H](Cc2ccc(F)cc2)[C@@H](OCC2CC2)[C@H](C)OC1=O [Compound F164],80 to 100
3,COc1ccnc(C(=O)N[C@H]2CCC[C@H](Cc3ccc(F)cc3F)[C@@H](OC(=O)c3ccco3)[C@H](C)OC2=O)c1OCOC(C)=O [Compound F144],80 to 100

# Same assay, conditions: Puccinia triticina, topical, 24 h, Wheat Brown Rust; 1 Day Protectant; rate 121.5 g/H (low volume application); read-out: Disease control PUCCRT 1 DP
row,Structure (SMILES),pest or weed control at 121.5 g/ha [%]
1,CCOCC(=O)OCOc1c(OC)ccnc1C(=O)N[C@H]1CCC[C@H](Cc2ccc(F)cc2F)[C@@H](OC(=O)c2ccco2)[C@H](C)OC1=O [Compound F193],80 to 100

# Same assay, conditions: Puccinia triticina, topical, 72 h, 3 Day Curative, rate 100 ppm; read-out: PUCCRT 3 DC disease control
row,Structure (SMILES),pest or weed control at 100 ppm [%]
1,CCCO[C@@H]1[C@@H](CCC(C)C)CCC[C@H](NC(=O)c2nccc(OC)c2OC(C)=O)C(=O)O[C@H]1C [Compound F64],80 to 100
2,CCOCC(=O)OCOc1c(OC)ccnc1C(=O)N[C@H]1CCC[C@H](Cc2ccc(F)cc2)[C@@H](OCC2CC2)[C@H](C)OC1=O [Compound F164],80 to 100

# Same assay, conditions: Puccinia triticina, topical, 72 h, 3 Day Curative, rate 121.5 g/H; read-out: PUCCRT 3 DC disease control
row,Structure (SMILES),pest or weed control at 121.5 g/ha [%]
1,CCCO[C@@H]1[C@@H](CCC(C)C)CCC[C@H](NC(=O)c2nccc(OC)c2OC(C)=O)C(=O)O[C@H]1C [Compound F64],80 to 100
2,CCOCC(=O)OCOc1c(OC)ccnc1C(=O)N[C@H]1CCC[C@H](Cc2ccc(F)cc2)[C@@H](OCC2CC2)[C@H](C)OC1=O [Compound F164],0 to 80

# Tested on: Mycosphaerella graminicola; Anamorph: Septoria tritici
# Assay: Leaf Blotch of Wheat (SEPTTR) disease control
# Type: in vivo
# Details: Zymoseptoria tritici, 24 h, 1 Day Protectant, rate 100 ppm; read-out: SEPTTR 1 DP disease control
# Summary of the method: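 Protective or curative format: Septoria tritici inoculation either preceded or followed fungicide application to first-leaf Yuma wheat. Severity scored 0–100%; control expressed versus untreated.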
row,Structure (SMILES),pest or weed control at 100 ppm [%]
1,CCCO[C@@H]1[C@@H](CCC(C)C)CCC[C@H](NC(=O)c2nccc(OC)c2OC(C)=O)C(=O)O[C@H]1C [Compound F64],80 to 100
2,CCOCC(=O)OCOc1c(OC)ccnc1C(=O)N[C@H]1CCC[C@H](Cc2ccc(F)cc2)[C@@H](OCC2CC2)[C@H](C)OC1=O [Compound F164],80 to 100

# Same assay, conditions: Zymoseptoria tritici, 24 h, 1 Day Protectant, rate 121.5 g/H; read-out: SEPTTR 1 DP disease control
row,Structure (SMILES),pest or weed control at 121.5 g/ha [%]
1,CCCO[C@@H]1[C@@H](CCC(C)C)CCC[C@H](NC(=O)c2nccc(OC)c2OC(C)=O)C(=O)O[C@H]1C [Compound F64],80 to 100
2,CCOCC(=O)OCOc1c(OC)ccnc1C(=O)N[C@H]1CCC[C@H](Cc2ccc(F)cc2)[C@@H](OCC2CC2)[C@H](C)OC1=O [Compound F164],80 to 100
3,COc1ccnc(C(=O)N[C@H]2CCC[C@H](Cc3ccc(F)cc3F)[C@@H](OC(=O)c3ccco3)[C@H](C)OC2=O)c1OCOC(C)=O [Compound F144],80 to 100

# Same assay, conditions: Zymoseptoria tritici, 24 h, Wheat Leaf Blotch; 1 Day Protectant; rate 121.5 g/H (low volume application); read-out: Disease control SEPTTR 1 DP
row,Structure (SMILES),pest or weed control at 121.5 g/ha [%]
1,CCOCC(=O)OCOc1c(OC)ccnc1C(=O)N[C@H]1CCC[C@H](Cc2ccc(F)cc2F)[C@@H](OC(=O)c2ccco2)[C@H](C)OC1=O [Compound F193],80 to 100

# Same assay, conditions: Zymoseptoria tritici, 72 h, 3 Day Curative, rate 100 ppm; read-out: SEPTTR 3 DC disease control
row,Structure (SMILES),pest or weed control at 100 ppm [%]
1,CCCO[C@@H]1[C@@H](CCC(C)C)CCC[C@H](NC(=O)c2nccc(OC)c2OC(C)=O)C(=O)O[C@H]1C [Compound F64],80 to 100
2,CCOCC(=O)OCOc1c(OC)ccnc1C(=O)N[C@H]1CCC[C@H](Cc2ccc(F)cc2)[C@@H](OCC2CC2)[C@H](C)OC1=O [Compound F164],80 to 100

# Same assay, conditions: Zymoseptoria tritici, 72 h, 3 Day Curative, rate 121.5 g/H; read-out: SEPTTR 3 DC disease control
row,Structure (SMILES),pest or weed control at 121.5 g/ha [%]
1,CCCO[C@@H]1[C@@H](CCC(C)C)CCC[C@H](NC(=O)c2nccc(OC)c2OC(C)=O)C(=O)O[C@H]1C [Compound F64],80 to 100
2,CCOCC(=O)OCOc1c(OC)ccnc1C(=O)N[C@H]1CCC[C@H](Cc2ccc(F)cc2)[C@@H](OCC2CC2)[C@H](C)OC1=O [Compound F164],80 to 100
3,COc1ccnc(C(=O)N[C@H]2CCC[C@H](Cc3ccc(F)cc3F)[C@@H](OC(=O)c3ccco3)[C@H](C)OC2=O)c1OCOC(C)=O [Compound F144],0 to 80

# Same assay, conditions: Zymoseptoria tritici, 72 h, Wheat Leaf Blotch; 3 Day Curative; rate 121.5 g/H (low volume application); read-out: Disease control SEPTTR 3 DC
row,Structure (SMILES),pest or weed control at 121.5 g/ha [%]
1,CCOCC(=O)OCOc1c(OC)ccnc1C(=O)N[C@H]1CCC[C@H](Cc2ccc(F)cc2F)[C@@H](OC(=O)c2ccco2)[C@H](C)OC1=O [Compound F193],0 to 80
